Data as given in US8592419B2, “Ceramides and apoptosis-signaling ligand” (MUSC Foundation for Research Development, priority 2004, dated 2013).

Legend:
[1] = system: p73; assay: Immunoblot of p73; format: cell-based, human
Method: (§1) Immunoblot analysis. Cells were seeded in 60mm plates as described above and treated accordingly. Cells were lifted by gently scraping the plates, washed once with ice cold PBS and then lysed in lysis buffer (PBS, 1% Triton X-100, 10% glycerol) containing protease inhibitors pepstatin A (0.5 μg/ml), leupeptin (0.5 μg/ml), aprotinin (5 μg/ml), and PMSF (100 μg/ml) for 10 minutes on ice. Insoluble material was removed by centrifugation at 14,000 rpm for 15 minutes at 4° C. The supernatants were then supplemented with SDS at a final concentration of 2% and stored at −80° C. Protein concentrations were determined using the DC Protein Assay (BioRad Laboratories; Hercules, CA, USA) according to the manufacturer's instructions. 50 μg of protein per sample (unless otherwise indicated) were separated on NuPAGE 4-12% Bis-Tris gels (Invitrogen; Carlsbad, CA, USA) and transferred to nitrocellulose membranes (BioRad). Following transfer, membranes were blocked for 1 hour at room temperature in Tris-buffered saline (TBS) containing 0.1% Tween-20 and 5% nonfat dry milk and incubated overnight at 4° C. with primary antibody at a dilution of 1:2,000(actin), 1:1,000(cytochrome c, COX IV, Bax, Bak, p53, p38, P-p38), 1:500(P-JNK, JNK), 1:250 (AC, p73), or 1:400(LAMP-1, cathepsin B). Overnight incubations were performed in 5% milk in TBS-Tween. Following overnight incubation, membranes were washed three times for 10 minutes each in TBS-Tween and incubated for 1 hour at room temperature with secondary antibody in 5% milk TBS-Tween at a dilution 1:5,000 (goat anti-mouse IgG) or 1:50,000 (goat anti-rabbit). Membranes were then washed three times more and incubated for 5 minutes at room temperature with Super Signal HRP substrate (Pierce Biotechnology Inc.; Rockford, IL, USA).

[2] = system: LAMP-1; assay: Immunoblot of LAMP-1; format: cell-based, human; conditions: DU145 cells, 12 hours LCL204
Method: as §1, with “Following overnight incubation, membranes were washed three times for 10 minutes each in TBS-Tween and incubated for 1 hour at room temperature with secondary antibody in 5% milk TBS-Tween at a dilution 1:5,000 (goat anti-mouse IgG) or 1:50,000 (goat anti-rabbit). Membranes were then washed three times more and incubated for 5 minutes at room temperature with Super Signal HRP substrate (Pierce Biotechnology Inc.; Rockford, IL, USA).” left out

[3] = system: DU145 cells; assay: Cell death by MTS assay, ceramide analog combined with AdGFPFasL virus; format: cell-based, human
Method: LCL102, a ceramidase inhibitor, which acts to increasing intracellular ceramide levels by […], were tested in this system. This molecule was highly efficient at activating cell death in DU145 cells at nontoxic doses if combined with AdGFPFasL virus at MOIs achievable in vivo. DU145 cells growing in 96 well plates at 1×10^4 cells/well are treated with either media alone or LCL102 at 2 uM for 48 hours followed by AdGFPFasL for 24 hours at the MOI (5-80). Cell death is assayed by the MTS assay. At 2 uM LCL102 and 5MOI of virus, cell death is amplified 4-fold compared to LCL102 alone (FIG. 14).

[4] = system: cFLIPS, Survivin, cIAP-1, RIP, Caspase 8; assay: Anti-apoptotic proteins and caspase 8 after LCL204; conditions: DU145 cells
[5] = target: T1, ASMase (Homo sapiens, UniProt P17405); assay: Acid sphingomyelinase activity assay; format: cell-based; conditions: DU145 cells, 10 μM
T1 construct: DU145 cells were lysed in 50 mM Tris (pH=7.4) using a probe sonicator; endogenous in cells; host or cells: DU145 (lysate of treated cells)
T1 sequence (P17405 47-631): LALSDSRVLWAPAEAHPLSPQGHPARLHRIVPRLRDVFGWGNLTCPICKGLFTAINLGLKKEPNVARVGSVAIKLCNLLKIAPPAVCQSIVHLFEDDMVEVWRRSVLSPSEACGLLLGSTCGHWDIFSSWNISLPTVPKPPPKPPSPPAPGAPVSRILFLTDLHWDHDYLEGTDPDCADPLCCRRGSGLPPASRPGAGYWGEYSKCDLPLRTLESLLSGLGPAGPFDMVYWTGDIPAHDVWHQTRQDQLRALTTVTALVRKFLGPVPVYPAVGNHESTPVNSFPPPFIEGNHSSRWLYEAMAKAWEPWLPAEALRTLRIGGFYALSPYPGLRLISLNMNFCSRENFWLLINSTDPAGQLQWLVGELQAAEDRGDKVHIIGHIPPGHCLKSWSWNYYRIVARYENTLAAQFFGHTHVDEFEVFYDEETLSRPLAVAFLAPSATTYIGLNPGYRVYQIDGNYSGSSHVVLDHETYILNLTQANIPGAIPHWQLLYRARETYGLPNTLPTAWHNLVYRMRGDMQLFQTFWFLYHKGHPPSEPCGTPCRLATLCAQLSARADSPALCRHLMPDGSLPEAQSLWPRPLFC
Method: Acid Sphingomyelinase Activity Assay. DU145 cells were lysed in 50 mM Tris (pH=7.4) using a probe sonicator. Cellular debris was removed after centrifugation at 3000×g for 10 minutes. Proteins (50 μg) were adjusted to a total volume of 100 μl and the reaction was started by adding 100 μl of the reaction mixture containing 1 mM EDTA, 250 mM sodium acetate (pH 5.0), 100 μM [choline-methyl-^14C] sphingomyelin and 0.1% Triton X. After incubation at 37° C. for one hour, the reaction was stopped by adding 1.5 ml of chloroform/methanol (2:1) and then 200 μl of water. Phases were separated by centrifugation at 2000×g for 5 minutes. Quantitation of the amount of released radioactive phosphocholine was determined by subjecting 400 μl of the upper phase to scintillation counting.

[6] = system: JNK; assay: Immunoblot of phosphorylated JNK; format: cell-based, human; conditions: DU145 and PC-3 cells
Method: as §1, with “Following overnight incubation, membranes were washed three times for 10 minutes each in TBS-Tween and incubated for 1 hour at room temperature with secondary antibody in 5% milk TBS-Tween at a dilution 1:5,000 (goat anti-mouse IgG) or 1:50,000 (goat anti-rabbit). Membranes were then washed three times more and incubated for 5 minutes at room temperature with Super Signal HRP substrate (Pierce Biotechnology Inc.; Rockford, IL, USA).” left out

[7] = system: Caspases 3 and 7; assay: Caspase 3/7 activity assay; format: cell-based, human; conditions: DU145 cells, 24 hours treatment
Method: Caspase 3/7 Activity Assay. Cells were seeded overnight in clear bottom black 96 well plates (Corning; Acton Mass.). The next day, medium was removed and replaced with medium containing vehicle or LCL204 at indicated concentrations. After 24 hours treatment, Caspases 3 and 7 activities were measured using Apo-ONE Homogeneous Caspase 3/7 assay according to the manufacturer's instructions (Promega). Fluorescence was measured using a Fluostar dual fluorescence/absorbance plate reader (BMG Laboratories; Durham, N.C., USA) with 485 nm excitation and 520 nm emission filter set.

[8] = system: mitochondria membrane potential in DU145 cells; assay: Mitochondria membrane potential measurement (JC-1); format: cell-based, human; conditions: 5 μM
Method: Mitochondria membrane potential measurement. Cells were seeded at a density of 7.49×10^5 cells per plate in 60 mm plates overnight. The next day, media was replaced with media containing vehicle control or LCL204 (5 μM). Cells were lifted using Cell Stripper (Mediatech), washed twice in PBS, and resuspended in 3 ml 1×JC-1 reagent solution (dissolved in medium). Samples were incubated at 37° C. for 15 minutes, washed twice with PBS, and resuspended in 0.5 ml growth medium before analysis by flow cytometry using a Beckton-Dickinson FACSCalibur (590 nm/527 nm emission). A minimum of 10,000 events were scored for each sample.

[9] = system: PUMA; assay: Immunoblot of PUMA; format: cell-based, human; conditions: for PUMA up-regulation: 10 μM
Method: as §1

[10] = system: p53; assay: Immunoblot of p53; format: cell-based, human; conditions: DU145 cells, 10 μM
Method: as §1, with “Following overnight incubation, membranes were washed three times for 10 minutes each in TBS-Tween and incubated for 1 hour at room temperature with secondary antibody in 5% milk TBS-Tween at a dilution 1:5,000 (goat anti-mouse IgG) or 1:50,000 (goat anti-rabbit). Membranes were then washed three times more and incubated for 5 minutes at room temperature with Super Signal HRP substrate (Pierce Biotechnology Inc.; Rockford, IL, USA).” left out

Structure (SMILES): CCCCCCCCCCCCCCN[C@H](CO)[C@H](O)c1ccc([N+](=O)[O-])cc1.Cl [LCL204, (1R,2R) D-threo-2-N-Tetradecylamino-1-(4′-nitrophenyl)-1,3-propandiol hydrochloride]
- p73β induction ([1]; PC-3 cells, 10 μM): p73β induction was detected after only two hours
- p73β induction ([1]; PPC-1/pcDNA3 cells): time-dependent p73β induction
- LAMP-1 expression [2]: increases
- increase in cancer cell death ([3]; 2 μM in combination with AdGFPFasL virus at low MOIs): ≤ 10 fold
- viral infectivity ([3]; DU145 cells): not modifying viral infectivity
- increase of the ability of AdGFPFasL to kill tumor cells ([3]; in vitro, subtoxic doses): as much as ten-fold
- Caspase 8 [4]: unaffected
- anti-apoptotic proteins [4]: down-regulation of anti-apoptotic proteins cFLIPS, Survivin, cIAP-1, and RIP
- earliest decrease in ASMase activity [5]: 30 min
- phosphorylation and activation of JNK [6]: beginning as early as three hours
- executioner caspase activity [7]: dose-dependent executioner caspase activity
- earliest observed decrease in ΔΨm [8]: 2 h
- PUMA up-regulation ([9]; DU145 cells): up-regulated in DU145 cells after eight hours
- PUMA up-regulation ([9]; PC-3 cells): earlier (four hours) in PC-3 cells
- time of PUMA induction ([9]; PPC-1/pcDNA3 control cells, 7.5 μM): 90 min
- p53 induction [10]: induced p53 in DU145 cells after four hours
